Tests used:
Assay type in all cases: biochemical
Conditions in all cases: apparent Ki via Cheng-Prusoff from IC50; room temperature, 1 nM enzyme
trypsin = biological target: T1, trypsin (Bos taurus, UniProt P00760); assay: Enzyme assay, inhibition of trypsin using purified enzyme (chromogenic peptide-p-nitroanilide substrate)
T1 construct: factor Xa, thromb in, trypsin; purchased
T1 sequence (P00760 24-246): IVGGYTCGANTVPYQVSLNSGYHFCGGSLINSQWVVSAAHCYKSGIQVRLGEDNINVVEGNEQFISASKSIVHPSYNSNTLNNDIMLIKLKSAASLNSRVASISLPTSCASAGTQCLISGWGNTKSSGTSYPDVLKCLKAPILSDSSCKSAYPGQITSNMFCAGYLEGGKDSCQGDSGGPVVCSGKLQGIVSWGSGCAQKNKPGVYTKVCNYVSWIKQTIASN
Protocol: (§1) All enzyme as says are carried out at room temperature in 96-well microtiter plates using a final enzyme concentration of 1 nM. The concentrations of factor Xa and thrombin are determined by active site titration and the concentrations of all other enzymes are based on the protein concentration supplied by the manufacturer. Compounds according to the invention are dissolved in DMSO, diluted with their respective buffers and assayed at a maximal final DMSO concentration of 1.25%. Compound dilutions are added to wells containing buffer and enzyme and pre-equilibrated for between 5 and 30 minutes. The enzyme reactions are initiated by the addition of substrate and the color developed from the hydrolysis of the peptide-p-nitroanilide substrates is monitored continuously for 5 minutes at 405 nm on a Vmax microplate reader (Molecular Devices). Under these conditions, less than 10% of the substrate is utilized in all assays. […] The apparent Ki values are then determined according to the Cheng-Prusoff equation (IC50=Ki[1+[S]J/Km]) assuming competitive inhibition kinetics.

factor Xa = factor Xa (Homo sapiens, UniProt P00742); assay: Enzyme assay, inhibition of factor Xa using purified enzyme (chromogenic peptide-p-nitroanilide substrate)
Sequence of factor Xa (P00742 235-488 limits assumed): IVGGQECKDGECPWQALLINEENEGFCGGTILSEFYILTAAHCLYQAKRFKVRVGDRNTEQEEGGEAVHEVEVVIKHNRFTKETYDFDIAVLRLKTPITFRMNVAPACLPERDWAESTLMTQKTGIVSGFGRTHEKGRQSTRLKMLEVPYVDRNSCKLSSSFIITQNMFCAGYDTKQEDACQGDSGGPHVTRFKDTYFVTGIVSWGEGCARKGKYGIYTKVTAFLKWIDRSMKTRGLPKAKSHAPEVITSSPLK
Sequence of factor Xa (P00742 41-179 partner limits assumed): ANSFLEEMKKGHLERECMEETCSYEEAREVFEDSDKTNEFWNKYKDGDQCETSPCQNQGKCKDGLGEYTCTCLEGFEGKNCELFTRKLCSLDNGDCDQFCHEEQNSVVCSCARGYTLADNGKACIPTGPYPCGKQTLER
Protocol: as §1

thrombin = thrombin (Homo sapiens, UniProt P00734); assay: Enzyme assay, inhibition of thrombin using purified enzyme (chromogenic peptide-p-nitroanilide substrate)
Protocol: as §1, with “Compound dilutions are added to wells containing buffer and enzyme and pre-equilibrated for between 5 and 30 minutes.” left out

| SMILES | Ki (trypsin) [nM] | Ki (factor Xa) [nM] | Ki (thrombin) [nM] |
| --- | --- | --- | --- |
| CC(=O)OCC(Cc1cccc(C(=N)N)c1)C(/C=C/c1ccccc1)NC(=O)c1ccc(-c2ccccc2)cc1 (stereo not drawn) [Compound 45] | 129 | 94 | 477 |
| COc1ccc(-c2ccc(C(=O)NC(CCc3ccccc3)C(COC(C)=O)Cc3cccc(C(=N)N)c3)cc2)cc1OC (stereo not drawn) [Compound 167] | 46 | 19 | 1230 |
| CN(C)Cc1cccc(-c2ccc(C(=O)NC(Cc3ccccc3)C(CO)Cc3cccc(C(=N)N)c3)cc2)c1 (stereo not drawn) [Compound 184] | 1720 | 27 | 2710 |
